The values below come from patent US20100197610A1, “FRUCTOSE 1, 6 BISPHOSPHATE - A NOVEL ANTICONVULSANT DRUG” (Baylor College of Medicine, priority 2007, published 2010).

Series [1] concerns pilocarpine-induced seizures. The series is described as follows: Pilocarpine model of acute seizures. In kind it is in vivo, Sprague Dawley rats. The method, then:
(§1) All animal experiments were carried out in accordance with the National Institutes of Health guide for the care and use of laboratory animals (NIH publication 8023, revised 1996) and with the approval of the local Animal Use Committee. Unless indicated, all chemicals were obtained from Sigma Chemical Co (St. Louis Mo.). Male, Sprague Dawley rats weighing 50-74 g (young) or 147-309 g (adult) were used in this study. Acute seizures were induced by kainic acid (KA; Ocean Produce Int., Canada), pilocarpine or pentylenetetrazole (PTZ) as previously described (Lian et al 2006). These models were chosen because they initiate seizures by different mechanisms and the seizures have a relatively gradual onset compared to seizures initiated by stimulation. There was no difference in the body weight of the animals receiving the different convulsants. For pilocarpine, kainic acid and PTZ, the mean weights were 219±5 g (range 163-275 g), 215±7 g (range 183-258 g), and 216±13 g (range 147-309 g), respectively. The animals in the drug treatment groups were not different in weight from the animals in the control groups.
(§2) After administration of KA (10 mg/kg, ip), pilocarpine (scopolamine methyl bromide 1 mg/kg, s.c followed 15 min later by 300 mg/kg, ip pilocarpine) or PTZ (50 mg/kg, ip) (Lian et al., 2006), animals were continuously monitored for seizure activity for at least 5 h after KA or pilocarpine and for 30 min after PTZ. Behavioral seizures were scored by an investigator blinded to the treatment. Latency to the first wet dog shake after KA, latency to the first forelimb clonus (after pilocarpine, kainic acid or PTZ) and the score and duration of seizures were measured. When at least 1 hour had passed without any head bobbing (for pilocarpine) or any wet dog shakes (for KA), seizures were considered over. Status epilepticus lasting longer than 4 hours (for KA) or 5 hours (for pilocarpine) were assigned 4 and 5 hours for seizure duration. For animals receiving PTZ, the seizure duration was defined as the period of tonic-clonic seizures. EEG recording in the hippocampus was conducted as previously described (Lian et al., 2004). After anesthesia, a recording electrode was placed in a burr hole centered at 3.0 mm posterior to bregma, 1.8 mm lateral to the midline and then lowered 3.0 mm. A ground screw and wire was placed over the frontal region in another burr hole. This assembly was fixed to the skull with dental cement.
(§3) Each animal was assigned the score of the most severe seizure observed. The behavioral seizures induced by KA or pilocarpine were scored according to an adjusted version of the scale of Racine (Bough et al., 2002): stage 1, wet dog shakes after KA or trembling after pilocarpine; stage 2, head bobbing and stereotypes; stage 3, unilateral forelimb clonus; stage 4, bilateral forelimb clonus; stage 5, rearing and falling; stage 6, jumping and/or running followed by falling. Death within 24 h was assigned stage 7.
(§4) Adult rats received either D-F1,6BP, sodium valproate (VPA, 0.3 g/kg), 2-DG (0.25, 0.5 g/kg) or normal saline (vehicle) intraperitoneally followed 1 h later by one of the convulsants. The dose for VPA was based on experimental evidence that doses from 0.1 to 0.4 g/kg (ip) are effective in animal models (Bough and Eagles, 2001; Manent et al., 2007). Three doses of F1,6BP (0.25, 0.5 and 1 g/kg) were tested with this dosing schedule. Two additional groups were administered F1,6BP (0.5 or 1 g/kg, n=5) after pilocarpine. In this experiment, the F1,6BP was given intraperitoneally at the first behavioral seizure, which was chewing movements of the jaw. Two additional sets of animals were fed the classic ketogenic diet (No. F3666; Bio-Serv, Frenchtown, N.J.). One set of animals was given the diet beginning on postnatal day 22-26 (KD-Yng) and maintained on this diet for 4 weeks. Thus the seizures were tested in this group when the animals had reached approximately the same age (50-54 days) as the majority of the animals tested. […]

In series [2] the test system is kainic acid-induced seizures. The series is described as follows: Kainic acid model of acute seizures. In kind it is in vivo, Sprague Dawley rats. As for the experimental part: as §1, §2, §3, §4
Series [3] relates to PTZ-induced generalized tonic-clonic seizures. The series is described as follows: PTZ model of acute seizures. Type of series: in vivo, Sprague Dawley rats. As for the experimental part: as §1, §2
Adult rats received either D-F1,6BP, sodium valproate (VPA, 0.3 g/kg), 2-DG (0.25, 0.5 g/kg) or normal saline (vehicle) intraperitoneally followed 1 h later by one of the convulsants. The dose for VPA was based on experimental evidence that doses from 0.1 to 0.4 g/kg (ip) are effective in animal models (Bough and Eagles, 2001; Manent et al., 2007). Three doses of F1,6BP (0.25, 0.5 and 1 g/kg) were tested with this dosing schedule. Two additional groups were administered F1,6BP (0.5 or 1 g/kg, n=5) after pilocarpine. In this experiment, the F1,6BP was given intraperitoneally at the first behavioral seizure, which was chewing movements of the jaw. Two additional sets of animals were fed the classic ketogenic diet (No. F3666; Bio-Serv, Frenchtown, N.J.). One set of animals was given the diet beginning on postnatal day 22-26 (KD-Yng) and maintained on this diet for 4 weeks. Thus the seizures were tested in this group when the animals had reached approximately the same age (50-54 days) as the majority of the animals tested.
The latency to seizure onset, seizure score and seizure duration were averaged across animals in each group. Comparisons between groups were done with an analysis of variance with Bonferroni post hoc test. Statistical difference was defined as p<0.05.

A further series relates to memory consolidation. The note with it: subcutaneous 0.3 μmol, chick (Gibbs and Summers, 2002); cited from earlier work.
The mark [4] stands for this setting: 2-DG 0.25 and 0.5 g/kg, n=5 each.
The mark [5] stands for this setting: VPA 0.3 g/kg ip pretreatment, n=9.

Structures are written as SMILES.

For `O=CC[C@@H](O)[C@H](O)[C@H](O)CO` [2-DG, 2-deoxyglucose, reference compound], in series [1] (2-DG 0.25 g/kg, n=6), the “animals with a stage 3 seizure” value was “only one animal”. Further, in series [1] (pretreatment with 2-DG), the seizure duration entry is on record as “decreasing” and the seizure score entry was “decreasing”. In series [2] (2-DG 0.25 g/kg, n=6), the “appearance of the first wet dog shake” value is recorded as “delayed” and the “effect on the other seizure parameters” value was “no effect”. Besides, in series [2] (2-DG 0.5 g/kg, n=3), the anticonvulsant activity result was “no additional activity”. Also, in series [3] (setting [4]), the “animals that had seizures” value is “All animals” and the seizure latency result is recorded as “not increased”. For the same compound, in series [3] (2-DG 0.25 g/kg), the seizure duration result is “significantly shortened”. For the same compound, the “effect on memory consolidation” value in the series on memory consolidation was “inhibit memory consolidation”.

Turning to `CCCC(CCC)C(=O)[O-].[Na+]` [VPA, sodium valproate, reference compound], the “animals with forelimb clonus” value in series [1] (VPA 0.3 g/kg ip pretreatment) is 6 out of 9. Moreover, in series [1] (setting [5]), the animals that died entry is listed as “one died”, the mean seizure score result is given as “significantly reduced” and the seizure duration entry is “significantly reduced”. In series [2] (VPA 0.3 g/kg ip, n=6), the “appearance of forelimb clonus” value is “but not the appearance of forelimb clonus”, the “appearance of wet dog shakes” value is “significantly delayed”, the duration of seizures entry is recorded as “decreased” and the seizure score was 4.5±0.2. This compound had a seizure duration in series [3] (VPA 0.3 g/kg) of 9 ± 4 s. Moreover, the “animals with no generalized tonic-clonic seizures” value in series [3] (VPA 0.3 g/kg, n=8) is given as “two animals”. In addition, the seizure latency in series [3] (VPA 0.3 g/kg, the six animals with seizures) was determined as 185 ± 27 s.
